Here are results for six compounds from patent US10710978B2, “STK4 inhibitors for treatment of hematologic malignancies” (Dana-Farber Cancer Institute, Inc., priority 2015, dated 2020).

Like-named read-outs stand apart in the source and are kept apart here.

One test concerns the target STK3 (MST2) (Homo sapiens (Human), UniProt Q13188). Put plainly: Z-lyte biochemical IC50 assay (Invitrogen). Particulars: ATP concentration matched the Km.
In the next test the test system is YAP1. Put plainly: Western blotting. It is filed as cell-based. As to conditions: for YAP1 levels: H929 and MM.1S cells. An excerpt:
(§1) MM.1S, KMS20 and H929 cells are counted, diluted and plated. Cells are then […] with DMSO or different concentration of a compound of the present application for 6 hrs, 24 hrs or 48 hrs. MM cells are then collected and centrifuged at RT and the pellets are re-suspended in lysis buffer. Cell lysates are subjected to sodium dodecyl sulfate-polyacrylamide gel electrophoresis SDS-PAGE, transferred to nitrocellulose membranes, and immunoblotted with different antibodies.
(§2) MM.1S, KMS20 and H929 cells were counted, diluted and plated in six-well plates to a final concentration of 500,000 cells/well. Cells were then […] with DMSO or different concentration of a compound of the present application for 6 hrs, 24 hrs or 48 hrs. MM cells were then collected and centrifuged for 5 min, 1300 rpm at RT. The pellets were re-suspended in lysis buffer Laemli 1× (Laemli 5×: SDS 10%, DTT 500 mM, Tris-HCl pH6.8 0.4M, BromoFenol Blue, Glycerol 50%). Cell lysates were subjected to sodium dodecyl sulfate-polyacrylamide gel electrophoresis SDS-PAGE, transferred to nitrocellulose membranes, and immunoblotted with different antibodies: YAP1 (#4912), p-YAP1 (S127) (#13008), LATS1 (#9153), p-LATS1 (Thr1079) (#8654), MOB1 (#3863), p-MOB1 (Thr12) (#8843), p-MST1/p-MST2 (Thr183/Thr180) (#3681), p21 (#2947), PARP (#9532), ERK, STAT, and GAPDH (#5174) from Cell Signaling, Beverly, Mass., United States; STK4 (ab57836) (from Abcam, Cambridge, Mass., United States); PUMA (sc-28226), BAX (sc-20067), from Santa Cruz, Dallas, Tex., United States; β-actin from Sigma-Aldrich (St. Louis, Mo., United States). All antibodies were diluted 1:500, except for β-actin antibody (1:50,000 dilution). In FIG. 8, H929 cells were treated with Compound I-9 or DMSO at 1 μM concentration for 24 hours. Lysates were then obtained and immunoblot was performed using antibodies against PARP, YAP1, PUMA, BAX. p21, and GAPDH.
In FIG. 10A, H929 and MM.1S cells were treated with Compound I-1 or DMSO at 1 μM and 10 μM concentrations for 16 hours. Lysates were then obtained and immunoblot was performed using antibodies against YAP1 and GAPDH.
In FIG. 12, H929 and MM. 1S cells were treated with Compound I-9, Compound I-12, or DMSO at 3 μM and 10 μM concentrations for 72 hours. Lysates were then obtained and immunoblot was performed using antibodies against YAP1 and Actin as loading control.
FIG. 13 show a Western blot of H929 and MM.1S cells treated with Compound I-13, Compound I-28, Compound I-9, KIN001-305, BMS536924, or DMSO at 1 μM concentration for 16 hours. Lysates were then obtained and immunoblot was performed using antibodies against YAP1, Actin, and pMOB1.
Background: In western blotting, separated proteins are transferred to a membrane and probed.

Another test has as its system p-MOB1. Kind of test: Western blotting. It is filed as cell-based. Particulars: MM.1S cells, 1 μM and 10 μM, 6 hours.
Text: as §1, §2
In FIGS. 26A-26J, MM.1S cells were treated with Compound I-6, Compound I-31, Compound I-30, Compound I-22, Compound I-27, Compound I-1, Compound I-23, Compound I-13, Compound I-28, Compound I-9, or DMSO at 1 μM and 10 μM concentrations for 6 hours. Lysates were then obtained and immunoblot was performed using antibodies against MOB1 and p-MOB1. As shown from FIGS. 26A-26J, Compound I-22, Compound I-27, Compound I-1, Compound I-23, Compound I-13, Compound I-28, and Compound I-9 reduced PMOB1 levels at different concentrations.

Another test concerns the target JAK2 domain2 (Homo sapiens (Human), UniProt O60674). Put plainly: KiNativ assay. It is filed as binding. As to conditions: H929 live cell. The method in brief:
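Treatment: 10 μM compound, H929 live cells, duplicates. Detection: KiNativ with mass spectrometry. Output: IC50.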

The mark [1] stands for this setting: range class, read-out: % inhibition.

STK3 (MST2), sequence (Q13188 whole entry): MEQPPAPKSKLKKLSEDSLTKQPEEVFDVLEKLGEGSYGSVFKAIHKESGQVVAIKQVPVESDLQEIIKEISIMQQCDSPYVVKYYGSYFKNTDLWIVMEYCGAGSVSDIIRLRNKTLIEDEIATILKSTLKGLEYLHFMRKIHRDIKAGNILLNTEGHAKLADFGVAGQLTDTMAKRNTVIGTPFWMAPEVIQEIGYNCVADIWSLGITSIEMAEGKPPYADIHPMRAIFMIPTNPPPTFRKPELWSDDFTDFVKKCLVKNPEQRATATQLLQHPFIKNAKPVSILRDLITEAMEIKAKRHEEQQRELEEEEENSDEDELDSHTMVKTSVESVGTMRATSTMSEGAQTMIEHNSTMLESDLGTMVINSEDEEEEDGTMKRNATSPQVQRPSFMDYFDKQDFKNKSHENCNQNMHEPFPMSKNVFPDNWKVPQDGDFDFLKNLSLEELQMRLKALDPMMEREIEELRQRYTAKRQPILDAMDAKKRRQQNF
JAK2 domain2, sequence (O60674 whole entry, the tested form may be a part): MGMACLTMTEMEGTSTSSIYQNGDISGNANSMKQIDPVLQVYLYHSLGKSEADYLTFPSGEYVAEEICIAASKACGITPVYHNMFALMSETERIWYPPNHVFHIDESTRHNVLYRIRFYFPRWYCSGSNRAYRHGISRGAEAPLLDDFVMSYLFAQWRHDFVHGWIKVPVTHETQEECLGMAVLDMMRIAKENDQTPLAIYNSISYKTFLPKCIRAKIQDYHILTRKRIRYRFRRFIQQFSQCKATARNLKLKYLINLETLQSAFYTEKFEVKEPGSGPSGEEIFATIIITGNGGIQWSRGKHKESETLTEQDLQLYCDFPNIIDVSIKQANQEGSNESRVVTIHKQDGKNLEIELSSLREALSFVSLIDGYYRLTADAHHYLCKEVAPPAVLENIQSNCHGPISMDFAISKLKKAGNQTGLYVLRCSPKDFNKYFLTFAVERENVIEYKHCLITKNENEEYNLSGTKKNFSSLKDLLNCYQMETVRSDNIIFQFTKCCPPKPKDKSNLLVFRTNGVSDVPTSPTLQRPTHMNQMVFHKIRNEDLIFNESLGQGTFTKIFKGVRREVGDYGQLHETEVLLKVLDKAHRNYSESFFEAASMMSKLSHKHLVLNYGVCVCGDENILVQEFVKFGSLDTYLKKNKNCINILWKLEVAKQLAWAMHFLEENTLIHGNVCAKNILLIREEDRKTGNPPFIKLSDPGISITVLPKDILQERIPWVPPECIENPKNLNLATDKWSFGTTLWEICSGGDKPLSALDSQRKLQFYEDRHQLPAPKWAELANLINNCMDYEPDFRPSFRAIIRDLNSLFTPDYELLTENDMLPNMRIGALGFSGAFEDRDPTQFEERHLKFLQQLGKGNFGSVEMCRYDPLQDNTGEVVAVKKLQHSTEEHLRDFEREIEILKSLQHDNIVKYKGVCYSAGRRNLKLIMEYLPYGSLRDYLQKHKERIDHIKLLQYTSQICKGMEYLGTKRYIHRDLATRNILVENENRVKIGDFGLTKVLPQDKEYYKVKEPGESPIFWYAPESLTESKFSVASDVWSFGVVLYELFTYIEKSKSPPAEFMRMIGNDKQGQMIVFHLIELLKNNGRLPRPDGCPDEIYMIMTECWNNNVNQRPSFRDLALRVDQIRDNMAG

The IC50 is the concentration that inhibits the measured activity by half. For the compound `Nc1ncc(-c2cc([N+](=O)[O-])ccc2F)cc1-c1ccc2c(c1)CCNC2=O` [Compound I-1, 6-(2-amino-5-(2-fluoro-5-nitrophenyl)pyridin-3-yl)-3,4-dihydroisoquinolin-1(2H)-one], the IC50 at STK3 (MST2) lay within 40 to 200 nM. In the test with YAP1 (H929 cells and MM.1S cells, 1 μM and 10 μM, 16 hours), the “protein levels of YAP1” value is reported as “upregulation”. Also, in the test with p-MOB1, the PMOB1 levels result is recorded as “reduced”.

`Nc1ncc(-c2cccc([N+](=O)[O-])c2F)cc1-c1ccc2c(c1)CCNC2=O` [Compound I-9, 6-(2-amino-5-(2-fluoro-3-nitrophenyl)pyridin-3-yl)-3,4-dihydroisoquinolin-1(2H)-one] returned an IC50 on STK3 (MST2) below 40 nM. For the same compound, the YAP1 levels result in the test with YAP1 (1 μM, 16 hours) is given as “increase”; in the test on YAP1 (3 μM and 10 μM, 72 hours) it was “low”. For the same compound, the “protein levels of YAP1” value in the test on YAP1 (H929 cells, 1 μM, 24 hours) was “upregulation”. The PMOB1 levels result with p-MOB1 is recorded as “reduced”.

On to `Nc1ncc(-c2cccc3ncsc23)cc1-c1ccc2c(c1)CCNC2=O` [Compound I-13, 6-(2-amino-5-(benzo[d]thiazol-7-yl)pyridin-3-yl)-3,4-dihydroisoquinolin-1(2H)-one], for which the IC50 against STK3 (MST2) fell in the range of 40 to 200 nM. The YAP1 levels result with YAP1 (1 μM, 16 hours) is “increase”. In addition, the PMOB1 levels entry in the test with p-MOB1 is “reduced”.

The compound `CN(C1CC1)S(=O)(=O)c1ccc(-c2cnc(N)c(-c3ccc4c(c3)CCNC4=O)c2)c(F)c1` [Compound I-28, 4-(6-amino-5-(1-oxo-1,2,3,4-tetrahydroisoquinolin-6-yl)pyridin-3-yl)-N-cyclopropyl-3-fluoro-N-methylbenzenesulfonamide] came in with an IC50 against STK3 (MST2) below 40 nM. In addition, in the test on YAP1 (1 μM, 16 hours), the YAP1 levels result was “increase”. In the test on p-MOB1, the PMOB1 levels entry is “reduced”.

A word on the inhibition: it is the drop in the measured response relative to a control, in per cent. Consider `COc1cc(NS(=O)(=O)C2CC2)ccc1-c1cnc(N)c(-c2ccc3c(c2)CCNC3=O)c1` [Compound I-50, N-(4-(6-amino-5-(1-oxo-1,2,3,4-tetrahydroisoquinolin-6-yl)pyridin-3-yl)-3-methoxyphenyl) cyclopropanesulfonamide], for which the results for the inhibition at 10 µM on JAK2 domain2 (setting [1]) and on JAK2 domain2 (read-out: inhibition (10 μM)) were 0% and -71.2%, respectively.

Turning to `Nc1ncc(-c2ccc(NS(=O)(=O)C3CC3)cc2OC2CCCCC2)cc1-c1ccc2c(c1)CCNC2=O` [Compound I-65, N-(4-(6-amino-5-(1-oxo-1,2,3,4-tetrahydroisoquinolin-6-yl)pyridin-3-yl)-3-(cyclohexyloxy)phenyl) cyclopropanesulfonamide], the inhibition at 10 µM turned out to be 0% at JAK2 domain2 (setting [1]) and 18.8% on JAK2 domain2 (read-out: inhibition (10 μM)).
